{"source": "patent US20080063628A1", "about": "“METHODS TO PROMOTE CELL DIFFERENTIATION” (priority 2006, published 2008)", "key": {"[1]": {"tested_on": "early passage (P5) pancreatic-derived stromal cell line", "assay": "Two high dose trichostatin A treatments (first 48 h), gene expression by RT-PCR (Example 9);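 on HNF-3 beta RT-PCR detection cycle: lower cycle number means higher gene expression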;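 on glucagon RT-PCR detection cycle: lower cycle number means higher gene expression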", "type": "cell-based, human", "settings": "for HNF-3 beta gene expression / Insulin gene expression / Pdx-1 gene expression / glucagon gene expression: 5 μM 0-48 h + 96-120 h", "procedure": "Several cell lines obtained from different amniotic fluid specimens (see Example 14) and pancreas donors (see Example 13) were tested with similar results. Two lines at similar passage number but derived from different amniotic fluid specimens are shown in Table VIII-A and Table VIII-B for this example. One of these cell lines was also used in examples 2 and 4 above. In addition, this example also contains comparison data in Table VIII-C and Table VIII-D for a single pancreatic-derived stromal line grown to early and late passage number.\nAmniotic fluid derived cells or pancreatic-derived stromal cells were seeded into 24-well tissue culture plates at a density of 5000/cm^2 and cultured in AMNIOMAX (Invitrogen) or DMEM with 10% FBS respectively under standard cell culture conditions until confluent. After reaching confluence, amniotic fluid derived cells were treated at time 0 hours with a dose of 1.25 μM trichostatin A, and pancreatic-derived stromal cells were treated with a dose of 5.0 μM trichostatin A solubilized in DMSO and medium. At time 48 hours, cell cultures underwent a complete medium change to remove all traces of trichostatin A. At time 96 hours, cell cultures were re-fed with fresh medium and received a second dose of trichostatin A at the same concentration as used previously. At time 120 hours, cell cultures again underwent a complete medium change and were cultured for an additional 24 hours or […] total incubation time. Samples were taken for RT-PCR at the times indicated in Table IX-A to D. RNA samples were obtained daily from the start of the experiment. Culture medium was removed, and cells were washed with PBS then collected in RLT with β-mercaptoethanol (Qiagen). RNA was purified using the RNeasy Mini Kit (Qiagen) and RNA quantity and quality was determined using a spectrophotometer. cDNA was made using the iScript cDNA synthesis kit (BioRad). Human pancreas cDNA was included as a control. Results were normalized against GAPDH expression levels.\nGene expression levels of Sox17, HNF-3 beta, Pdx-1, insulin, and glucagon were analyzed in amniotic-derived cells, while expression levels of glucagon, insulin, HNF-3 beta, and Pdx-1 were analyzed in pancreas-derived cells. Samples of 20 ng cDNA was used in each Real-Time PCR reaction. RT-PCR was performed on the Applied Biosystems 7500, according to the methods described in Example 15. The data were analyzed using the accompanying software.\nReal-time PCR amplifcation and quantitative analysis. Unless otherwise stated, all reagents were purchased from Applied Biosystems. Real-time PCR reactions were performed using the ABI PRISM™ 7500 Sequence Detection System. TAQMAN™ FAST UNIVERSAL PCR MASTER MIX™ (ABI, CA) was used with 20 ng of reverse transcribed RNA in a total reaction volume of 20 μl. Each cDNA sample was run in duplicate to allow correction of pipetting errors. Primers and FAM-labeled TAQMAN™ probes were used at concentrations of 200 nM. The level of expression for each target gene was normalized using the pre-developed Applied Biosystem's human glyceraldehyde-3-phosphate dehydrogenase (GAPDH) endogenous control kit. Primers and probes were designed using either ABI PRISM PRIMER EXPRESS™ software or a pre-developed ABI gene analysis kit. For each gene, either one of the primers or the probe were designed to be exon-boundary spanning. This eliminated the possibility of the primers/probe binding to any genomic DNA present. The primer and probe sets are listed as follows: Pdx-1 (Hs00426216), Insulin (Hs00355773), glucagon (Hs00174967), and FoxA2 (HNF 3-beta) (Hs00232764). The remaining primers were designed using the PRIMERS program (ABI, CA). After an initial 95° C. incubation for 20 sec, samples were cycled 40 times in two stages: a denaturation step at 95° C. for 3 sec, followed by an annealing/extension step at 60° C. for 30 sec. […]"}, "[2]": {"tested_on": "PHA treated PBMCs containing activated T-lymphocytes", "assay": "Trichostatin A treatment of PBMCs, gene expression by RT-PCR (Example 20)", "type": "cell-based, human", "settings": "5 μM", "excerpt": "Human peripheral blood mononuclear cells (PBMCs) were isolated from whole blood using Histopaque (Sigma) gradients and standard density centrifugation. PBMCs are a heterogeneous mixture of lymphoid cells including quiescent T-lymphocytes. Cells were washed thoroughly, counted, and resuspended at 1-2×10^6 cells per ml in culture medium containing RPMI-1640 and 10% FCS. Phytohemagglutinin (PHA; Sigma) is a mitogenic lectin that specifically induces T-lymphocyte activation and proliferation. PHA was added to the cell suspension at a final concentration of 10 μg/ml, and PBMCs were cultured for 3 days at 37° C. with 5% CO2. […] At the end of culture, PBMCs were pooled to harvest, washed thoroughly, and resuspended in fresh culture medium with 5 μM trichostatin A diluted in DMSO. A control culture of PHA-treated PBMCs received an equivalent dilution of DMSO alone. Cells were returned to culture for an additional 24 or 48 hours. Alternatively, resting PBMCs were isolated in a similar manner and cultured for 24 or 48 hours total incubation time with either 5 μM trichostatin A or DMSO alone. At the conclusion of culture, cells were harvested and washed with PBS prior to preparation of RNA in RLT lysis buffer with β-mercaptoethanol (Qiagen). RNA was purified using the RNeasy Mini Kit (Qiagen); RNA quantity and quality were determined using a spectrophotometer. CDNA was made using the iScript CDNA synthesis kit (BioRad). Samples of 20 ng CDNA were used in each RT-PCR reaction, performed on the Applied Biosystems 7500. Results were normalized against GAPDH expression levels with data analysis performed using the accompanying software."}, "[3]": {"settings": "5.0 μM, following the second addition"}, "[4]": {"settings": "24 hrs, after 3 days PHA 10 μg/ml"}, "[5]": {"settings": "48 hours, after 3 days PHA 10 μg/ml"}}}
{"compound": "CC(/C=C/C(=O)NO)=C\\[C@@H](C)C(=O)c1ccc(N(C)C)cc1", "note": "[trichostatin A]", "values": [{"measurement": "HNF-3 beta gene expression", "setting": "[1]; 24 hrs", "value": "+++ (detectable at less than 35 cycles by RT-PCR with SE less than 0.9)"}, {"measurement": "Insulin gene expression", "setting": "[1]; 24 hrs", "value": "nd (not detectable at >40 cycles by RT-PCR)"}, {"measurement": "Pdx-1 gene expression", "setting": "[1]; 24 hrs", "value": "+++ (detectable at less than 35 cycles by RT-PCR with SE less than 0.9)"}, {"measurement": "glucagon gene expression", "setting": "[1]; 24 hrs", "value": "+++ (detectable at less than 35 cycles by RT-PCR with SE less than 0.9)"}, {"measurement": "HNF-3 beta gene expression", "setting": "[1]; 48 hrs", "value": "+++ (detectable at less than 35 cycles by RT-PCR with SE less than 0.9)"}, {"measurement": "Insulin gene expression", "setting": "[1]; 48 hrs", "value": "nd (not detectable at >40 cycles by RT-PCR)"}, {"measurement": "Pdx-1 gene expression", "setting": "[1]; 48 hrs", "value": "+++ (detectable at less than 35 cycles by RT-PCR with SE less than 0.9)"}, {"measurement": "glucagon gene expression", "setting": "[1]; 48 hrs", "value": "+++ (detectable at less than 35 cycles by RT-PCR with SE less than 0.9)"}, {"measurement": "HNF-3 beta gene expression", "setting": "[1]; 72 hrs", "value": "nd (not detectable at >40 cycles by RT-PCR)"}, {"measurement": "Insulin gene expression", "setting": "[1]; 72 hrs", "value": "+++ (detectable at less than 35 cycles by RT-PCR with SE less than 0.9)"}, {"measurement": "Pdx-1 gene expression", "setting": "[1]; 72 hrs", "value": "nd (not detectable at >40 cycles by RT-PCR)"}, {"measurement": "glucagon gene expression", "setting": "[1]; 72 hrs", "value": "+ (detectable between 35 and 40 cycles by RT-PCR)"}, {"measurement": "HNF-3 beta gene expression", "setting": "[1]; 96 hrs", "value": "nd (not detectable at >40 cycles by RT-PCR)"}, {"measurement": "Insulin gene expression", "setting": "[1]; 96 hrs", "value": "nd (not detectable at >40 cycles by RT-PCR)"}, {"measurement": "Pdx-1 gene expression", "setting": "[1]; 96 hrs", "value": "nd (not detectable at >40 cycles by RT-PCR)"}, {"measurement": "glucagon gene expression", "setting": "[1]; 96 hrs", "value": "+ (detectable between 35 and 40 cycles by RT-PCR)"}, {"measurement": "HNF-3 beta gene expression", "setting": "[1]; 120 hrs", "value": "+++ (detectable at less than 35 cycles by RT-PCR with SE less than 0.9)"}, {"measurement": "Insulin gene expression", "setting": "[1]; 120 hrs", "value": "nd (not detectable at >40 cycles by RT-PCR)"}, {"measurement": "Pdx-1 gene expression", "setting": "[1]; 120 hrs", "value": "+++ (detectable at less than 35 cycles by RT-PCR with SE less than 0.9)"}, {"measurement": "glucagon gene expression", "setting": "[1]; 120 hrs", "value": "+ (detectable between 35 and 40 cycles by RT-PCR)"}, {"measurement": "Pdx-1 RT-PCR detection cycle", "setting": "[1]; 5.0 μM, 48 hours", "value": 32, "unit": "cycles"}, {"measurement": "glucagon RT-PCR detection cycle", "setting": "[1]; 5.0 μM, 48 hours", "value": 33, "unit": "cycles"}, {"measurement": "glucagon RT-PCR detection cycle", "setting": "[1]; 5.0 μM, after trichostatin A was removed", "value": 38, "unit": "cycles"}, {"measurement": "Insulin RT-PCR detection cycle", "setting": "[1]; 5.0 μM, following the medium change", "value": 33, "unit": "cycles"}, {"measurement": "Pdx-1 RT-PCR detection cycle", "setting": "[1]; [3]", "value": 32, "unit": "cycles"}, {"measurement": "glucagon RT-PCR detection cycle", "setting": "[1]; [3]", "value": 37, "unit": "cycles"}, {"measurement": "glucagon RT-PCR detection cycle", "setting": "[1]; 5.0 μM, following treatment", "value": 35, "unit": "cycles"}, {"measurement": "HNF-3 beta RT-PCR detection cycle", "setting": "[1]; 5.0 μM, following treatment until removal", "value": 34, "unit": "cycles"}, {"measurement": "HNF-3 beta RT-PCR detection cycle", "setting": "[1]; 5.0 μM, when trichostatin A was added again", "value": 33, "unit": "cycles"}, {"measurement": "HNF-3 beta expression", "setting": "[2]; 24 or 48 hours", "value": "negative"}, {"measurement": "Sox17 expression", "setting": "[2]; 24 or 48 hours", "value": "negative"}, {"measurement": "glucagon expression", "setting": "[2]; 24 or 48 hours", "value": "negative"}, {"measurement": "insulin expression", "setting": "[2]; 24 or 48 hours", "value": "negative"}, {"measurement": "somatostatin expression", "setting": "[2]; 24 or 48 hours", "value": "negative"}, {"measurement": "GAPDH gene expression", "setting": "[2]; [4]", "value": "+++ (detectable at less than 35 cycles by RT-PCR with SE less than 0.9)"}, {"measurement": "GATA4 gene expression", "setting": "[2]; [4]", "value": "+++ (detectable at less than 35 cycles by RT-PCR with SE less than 0.9)"}, {"measurement": "Gata1 gene expression", "setting": "[2]; [4]", "value": "nd (not detectable at >40 cycles by RT-PCR)"}, {"measurement": "Pdx-1 gene expression", "setting": "[2]; [4]", "value": "+ (detectable at greater than 35–40 cycles by RT-PCR)"}, {"measurement": "GATA4 gene expression", "setting": "[2]; [5]", "value": "+++ (detectable at less than 35 cycles by RT-PCR with SE less than 0.9)"}, {"measurement": "Gata1 gene expression", "setting": "[2]; [5]", "value": "nd (not detectable at >40 cycles by RT-PCR)"}, {"measurement": "Pdx-1 gene expression", "setting": "[2]; [5]", "value": "+ (detectable at greater than 35–40 cycles by RT-PCR)"}]}
